From patent US7345051B2, “Mucin synthesis inhibitors” (Genaera Corporation, priority 2000, dated 2008)
“Also recorded” adds a separate entry of the source.

How the values were obtained:
H292 clone 15 cells = details: 48 hours compound, Alamar Blue 2 hours; Average of 3 experiments
[1] = test system: MUC5AC production by H292 clone 15 cells overexpressing hCLCA1; assay: ELLA of MUC5AC in conditioned media of H292 clone 15 cells; format: cell-based, human; details: Average of 3 experiments
Procedure: Conditioned media were collected and MUC5AC (the major secretory mucin in lungs) content was determined by ELLA measurement as described below. 96 well microtiter plates were coated with a mouse monoclonal antibody against human MUC5AC (1-13M1, NeoMarkers), then incubated with test conditioned media. Bound MUC5AC was detected by horseradish peroxidase-conjugated soybean lectin which has a high affinity towards highly-glycosylated proteins such as MUC5AC. Conversion of peroxidase substrate TMB (Tetramethylbenzidine Base) was quantified by reading at 450 nm. O.D. (optical density) readings were plotted against concentrations of compounds.

activated Caco2 cells = details: Caco-2
[2] = test system: MUC5A/C secretion in hCLCA1 expressing H292 cells; assay: MUC5A/C secretion in hCLCA1 expressing H292 cells (ELLA); format: cell-based, human; set-up: key to ELLA: + = inhibition; − = no inhibition; details: for ELLA: Table 2, mucin production
Muc5b = assay: Inhibition of Muc5b expression; format: cell-based; set-up: key: + = inhibition; − = no inhibition; details: Table 2
Procedure: The effects of talniflumate derivatives on mucin production were also assayed for changes in ELLA and IC50 (Table 2) as described in the methods above.

[3] = test system: NCI-H292/hICACC-1 (AAF 15) cells; assay: AB/PAS staining of mucous glycoconjugates in NCI-H292 cells over-expressing hICACC-1; format: cell-based, human; details: 3 days
Procedure: NCI-H292 cells, a human pulmonary mucoepidermoid carcinoma cell line, were purchased from the American Type Culture Collection (Manassas Va.) and cultured in RPMI1640 medium supplemented with 10% FBS and 1% penicillin/streptomycin (Gibco/BRL). The cells were grown in a humidified, air-containing incubator, supplemented with 5% CO2 at 37° C. Stable NCI-H292 cell lines over-expressing hICACC-1 were established by transfection of pcDNA3-hICACC-1 using a Fujin Transfection kit according to the manufacture's instruction (Boehringer-Mannheim). A control cell line was produced, NCI-H292/ctl, by the transfection of pcDNA3 (ctl) into the NCI-H292 cell line using the same procedure. Expression of the hICACC-1 gene was confirmed for the pcDNA3-hICACC-1 transfectent by Northern analysis.
For the determination of mucous glycoconjugate production, NCI-H292/ctl and NCI-H292/hICACC-1 (AAF 15) cells were cultured in 24-well plates for 3 days. Cells were then fixed with Formalin and mucous glycoconjugates were visualized by AB/PAS staining (Sigma). […] For chloride channel blockage studies, cells were cultured in the presence of niflumic acid (NFA) (Sigma) at 100 μM concentration, mefanamic acid (MFA) at 125 or 250 μM or talniflumate at 12.5, 25 or 50 μM, or media alone.

[4] = test system: activated Caco2 cell line; assay: Viability of activated Caco2 cells treated with NFA; format: cell-based; details: even higher concentrations of NFA
activated LHL4 cells = assay: Eotaxin production by activated LHL4 cells (ELISA); format: cell-based; details: increasing concentrations
Procedure: Activated LHL4 cells that express and secrete eotaxin have been produced and used to test for inhibitors of eotaxin production. These cells were assayed in vitro for eotaxin by an ELISA technique well known in the art (R&D Systems).

[5] = test system: mice sensitized by nasal aspiration of Aspergillus fumigatus antigen; format: in vivo
IL9 transgenic mice = assay: Mucin production in lungs of IL9 transgenic mice, intra-tracheal treatment; format: in vivo; details: NFA (100 μg) IT once daily for three days
Procedure: Certified virus-free male and female IL9 transgenic mice (IL9TG5-FVB/N) 5-6 weeks of age were bred in our laboratories. Male and female FVB/N mice 5-6 weeks of age were purchased from Jackson Laboratories (Bar Harbor Me.). Animals were housed in high-efficiency, particulate filtered air and allowed free access to food and water for 3 to 7 days prior to experimental manipulation. The animal facilities were maintained at 22° C. and the light:dark cycle was automatically controlled (10:14 hour light:dark).
Animals were phenotyped, naïve, or 24 hrs after receiving intra-tracheal (IT) shame (vehicle) treatment, or drugs in the same vehicle as was used in identically treated controls. Mice were treated IT once daily for three days. NFA (100 μg) or antibody to IL-9 were administered in PBS IT. […] The up-regulation of mucus production in the IL9 transgenic is specifically associated with increased steady-state mRNA levels of MUC2 and MUC5AC as shown by RT-PCR (FIG. 9).

[6] = test system: B6D2F1 mice sensitized with Aspergillus fumigatus; assay: Murine asthma model, Aspergillus fumigatus sensitization, Talniflumate containing mouse chow; format: in vivo; details: oral
MUC2 transcription = assay: MUC2 promoter luciferase reporter, lipoteichoic acid induction; format: cell-based; details: LTA from S. aureus; FIG. 22
Procedure: MUC2 transcription was monitored as described in Li et al. (1998) Proc. Natl. Acad. Sci., USA, Vol. 95, pp. 5718-5723. Briefly, an epithelial cell line was transfected with a reporter construct containing the promoter region from the MUC2 gene cloned upstream of a luciferase reporter gene. Transfected cells were treated with serum free media (SFM) alone or, as indicated, containing lipoteichoic acid from S. aureus bacteria (LTA), adenosine (aden), or talniflumate (MSI). Cells were then lysed and luciferase enzyme activity in the lysates was measured (RLU). Talniflumate modulated the lipoteichoic acid induction of MUC2 (see FIG. 22). This is also an appropriate model for CF.

[7] = test system: CF mice (CF knock-out mice and CF ΔF508 mice); details: po, 100 mg/kg
[8] = test system: human chloride channel hICACC-1; assay: Patch clamp chloride current, NCI-H292 cell expressing hICACC-1; format: cell-based; details: 5 micromolar talniflumate; 2 μM ionomycin and 2 mM calcium
Procedure: An NCI-H292 cell transfected with a plasmid expressing the human chloride channel hICACC-1 was patch clamped and chloride current (I) was measured over a range of voltages (V). Substantial chloride current was invoked by the addition of 2 μM ionomycin and 2 mM calcium (circles) compared to baseline (squares), indicating activation of hICACC-1.

[9] = target: T1, murine chloride channel, mICACC-1 (Mus musculus, UniProt Q9D7Z6); assay: Patch clamp chloride current, HEK293 cell expressing mICACC-1; format: cell-based; details: for Chloride Current (nA/pF): + ionomycin + Ca
T1 construct: expressed in transfected cells; host or cells: HEK293
T1 sequence (Q9D7Z6 22-913): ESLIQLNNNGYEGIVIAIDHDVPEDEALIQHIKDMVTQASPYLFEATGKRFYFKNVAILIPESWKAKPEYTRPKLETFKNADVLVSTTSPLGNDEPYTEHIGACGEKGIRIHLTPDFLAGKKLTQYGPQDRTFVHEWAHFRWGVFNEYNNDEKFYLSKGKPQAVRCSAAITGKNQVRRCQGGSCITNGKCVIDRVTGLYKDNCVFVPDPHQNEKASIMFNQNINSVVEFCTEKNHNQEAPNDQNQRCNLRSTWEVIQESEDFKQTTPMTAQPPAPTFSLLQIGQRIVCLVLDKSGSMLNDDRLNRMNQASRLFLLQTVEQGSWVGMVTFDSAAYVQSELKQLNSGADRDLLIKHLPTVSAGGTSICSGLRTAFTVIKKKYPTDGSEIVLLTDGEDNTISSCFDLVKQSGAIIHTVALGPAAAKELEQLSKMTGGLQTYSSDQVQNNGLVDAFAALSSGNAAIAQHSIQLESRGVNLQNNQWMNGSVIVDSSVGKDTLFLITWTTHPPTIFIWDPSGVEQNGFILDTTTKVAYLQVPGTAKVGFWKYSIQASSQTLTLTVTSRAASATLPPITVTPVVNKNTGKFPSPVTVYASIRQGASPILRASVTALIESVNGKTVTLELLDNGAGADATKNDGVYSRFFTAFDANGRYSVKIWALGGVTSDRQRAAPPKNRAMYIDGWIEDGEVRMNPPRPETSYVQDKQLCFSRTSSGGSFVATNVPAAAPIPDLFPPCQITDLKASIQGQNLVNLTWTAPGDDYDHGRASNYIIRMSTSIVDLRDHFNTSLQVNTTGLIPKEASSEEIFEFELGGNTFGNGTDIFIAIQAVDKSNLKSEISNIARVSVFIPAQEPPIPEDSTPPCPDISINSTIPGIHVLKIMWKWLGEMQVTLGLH
Procedure: A HEK293 cell transfected with a plasmid expressing a murine chloride channel, mICACC-1, was patch clamped and chloride current was measured over a range of voltages (V, left column) and the results are shown in Table 3 below. Each row lists currents invoked at a particular positive voltage in the absence (−) or presence (+) of ionomycin and calcium, and in the presence of an indicated concentration of diclofenac (μM). Substantial current was invoked by the addition of 2 μM ionomycin and 2 mM calcium-compare the first two columns-indicating activation of mICACC-1 by the ionomycin/calcium treatment. For example, at 100 mV of positive voltage, the chloride current was increased from 39 nA/pF to 105 nA/pF.

In the case of `O=C1OC(CC(=O)c2cccnc2Oc2cccc(Br)c2)c2ccccc21` (stereo not drawn) [Compound 14], the “Est. LD50 (μM)(alamar Blue)*” value (H292 clone 15 cells) is reported as 16 µM.
With `O=C1OC(CC(=O)c2cccnc2Sc2ccccc2Cl)c2ccccc21` (stereo not drawn) [Compound 15] the “Est. LD50 (μM)(alamar Blue)*” value (H292 clone 15 cells) was 15 µM and the IC50 ([1]; Homo sapiens, NCI-H292, 48 hours) was 2.5 µM.
In the case of `O=C(O)c1ccccc1Nc1cccc(C(F)(F)F)c1` [Flufenamate], the “Mucin production by activated Caco2 cells” value (activated Caco2 cells) is reported as “inhibited”.
In the case of `COC(=O)c1cccnc1Nc1cccc(C(F)(F)F)c1` [MSI 2213, Niflumic acid methyl ester], the ELLA [2] is reported as “−”.
`O=C1OC(CC(=O)c2cccnc2Nc2cccc(C(F)(F)F)c2)c2ccccc21` (stereo not drawn) [MSI 2216] was tested, and the “Est. LD50 (μM)(alamar Blue)*” value (H292 clone 15 cells) was 32 µM, the IC50 ([2]; Table 2, ELLA) was 5000 nM and the ELLA [2] was “+”. For the same compound, the IC50 ([1]; 48 hours) was 3 µM and the “Inhibition of Muc5b Expression” value (Muc5b) was “+”.
For `Cc1ccc(Cl)c(Nc2ccccc2C(=O)O)c1Cl` [Meclofenamate], the “Mucin production by activated Caco2 cells” value (activated Caco2 cells) was “partially”.
With `Cc1cccc(Nc2ccccc2C(=O)O)c1C` [Mefenamate] the “Mucin production by activated Caco2 cells” value (activated Caco2 cells) was “partially” and the “PAS positive staining muco-glycoconjugates compared with untreated cells” value ([3]; MFA at 125 or 250 μM) was “significantly fewer positive staining muco-glycoconjugates”.
`O=C(O)c1cccnc1Nc1cccc(C(F)(F)F)c1` [NFA, niflumic acid] was tested, and the viability [4] was “not affected; also recorded: did not effect their viability”, the eotaxin production (activated LHL4 cells) was “Significant inhibition; also recorded: blocks epithelial activation including chemokine production” and the “serum IgE levels” value ([5]; 100 μg of NFA intra-tracheal, days 0-21, vs PBS) was “no effect”. For the same compound, the BAL lung eosinophilia ([5]; mouse, in vivo) was “suppress; also recorded: reduces antigen-induced lung eosinophilia in vivo”, the antigen-induced airway hyperresponsiveness ([5]; mouse, in vivo) was “suppress; also recorded: suppresses antigen-induced airway hyperresponsiveness” and the “mucin production in the IL9 transgenic lungs” value (IL9 transgenic mice) was “decreased mucin production”. For the same compound, the “PAS positive staining muco-glycoconjugates compared with untreated cells” value ([3]; NFA at 100 μM) was “significantly fewer positive staining muco-glycoconjugates”.
For `COc1ccc2cc([C@H](C)C(=O)O)ccc2c1` [Naproxen], the “Mucin production by activated Caco2 cells” value (activated Caco2 cells) was “ineffective”.
With `CC1=C(CC(=O)O)c2cc(F)ccc2/C1=C\c1ccc([S+](C)[O-])cc1` (stereo not drawn) [Sulindac] the “Mucin production by activated Caco2 cells” value (activated Caco2 cells) was “ineffective”.
For `O=C1OC(OC(=O)c2cccnc2Nc2cccc(C(F)(F)F)c2)c2ccccc21` (stereo not drawn) [Talniflumate, talniflumate], the “Est. LD50 (μM)(alamar Blue)*” value (H292 clone 15 cells) was 108 µM, the “lung eosinophilia, number of eosinophilic cells by bronchoalveolar lavage” value ([6]; Talniflumate coated chow, sensitized mice vs standard chow) was “reduced the number of eosinophilic cells; also recorded: inhibition of lung eosinophilia” and the “mucin staining (PAS) in lung” value ([6]; Talniflumate containing chow ad lib, Asp-sens mice vs regular chow) was “reduced mucin staining; also recorded: inhibition of mucin over production”. For the same compound, the “lipoteichoic acid induction of MUC2 (luciferase, RLU)” value (MUC2 transcription) was “modulated”, the “PAS positive staining muco-glycoconjugates compared with untreated cells” value ([3]; talniflumate at 12.5, 25 or 50 μM) was “significantly fewer positive staining muco-glycoconjugates” and the body weight gained [7] was 8-12%. For the same compound, the “chloride current at positive voltage” value [8] was “reduction in chloride current”.
`O=C(O)Cc1ccccc1Nc1c(Cl)cccc1Cl` [diclofenac] was tested, and the “Chloride Current (nA/pF)” value ([9]; 0 mV, diclofenac 5 μM) was 20 nA/pF, the “Chloride Current (nA/pF)” value ([9]; 0 mV, diclofenac 20 μM) was 20 nA/pF and the “Chloride Current (nA/pF)” value ([9]; 0 mV, diclofenac 50 μM) was 19 nA/pF. The “Chloride Current (nA/pF)” value ([9]; 20 mV, diclofenac 5 μM) was 36 nA/pF, the “Chloride Current (nA/pF)” value ([9]; 20 mV, diclofenac 20 μM) was 34 nA/pF and the “Chloride Current (nA/pF)” value ([9]; 20 mV, diclofenac 50 μM) was 33 nA/pF. For the same compound, the “Chloride Current (nA/pF)” value ([9]; 40 mV, diclofenac 5 μM) was 53 nA/pF, the “Chloride Current (nA/pF)” value ([9]; 40 mV, diclofenac 20 μM) was 51 nA/pF and the “Chloride Current (nA/pF)” value ([9]; 40 mV, diclofenac 50 μM) was 48 nA/pF. The “Chloride Current (nA/pF)” value ([9]; 60 mV, diclofenac 5 μM) was 72 nA/pF, the “Chloride Current (nA/pF)” value ([9]; 60 mV, diclofenac 20 μM) was 69 nA/pF and the “Chloride Current (nA/pF)” value ([9]; 60 mV, diclofenac 50 μM) was 66 nA/pF. The “Chloride Current (nA/pF)” value ([9]; 80 mV, diclofenac 5 μM) was 92 nA/pF, the “Chloride Current (nA/pF)” value ([9]; 80 mV, diclofenac 20 μM) was 88 nA/pF and the “Chloride Current (nA/pF)” value ([9]; 80 mV, diclofenac 50 μM) was 85 nA/pF. The “Chloride Current (nA/pF)” value ([9]; 100 mV, diclofenac 5 μM) was 115 nA/pF, the “Chloride Current (nA/pF)” value ([9]; 100 mV, diclofenac 20 μM) was 109 nA/pF and the “Chloride Current (nA/pF)” value ([9]; 100 mV, diclofenac 50 μM) was 106 nA/pF. For the same compound, the “inhibition of channel activity” value ([9]; diclofenac 5 μM to 50 μM, 2 μM ionomycin and 2 mM calcium) was “No inhibition”.
